Data from US9663475B2, “2 amino-3,4-dihydrcquinazoline derivatives and the use thereof as cathepsin D inhibitors” (Merck Patent GmbH, priority 2013, dated 2017).
Non-standard residues stand in square brackets, D forms with d. Residues, ends and D or L forms follow the SMILES beside them. *: point of attachment. Sta = CC(C)C[C@H](N)[C@@H](O)CC(=O)O; Isovaleryl = CC(C)CC(=O)*

Target: cathepsin D isolated from the human liver (Homo sapiens (Human), UniProt P07339)
Experiment: In-vitro fluorescence assay for identification of cathepsin D inhibitors
Type: biochemical
Details: human liver cathepsin D 1.4 nM, pH 5.5, substrate 5 μM; read-out: Cath D IC50
Protocol: In order to identify modulators of cathepsin D activity, a continuous enzymatic test was carried out with a synthetic peptide which carries a fluorescent group (MCA=(7-methoxycoumarin-4-yl)acetyl) which is quenched by energy transfer from a Dpn (2,4 dinitrophenyl) group on the same molecule, in Greiner 384-well nb microtitre plates. Cleavage of the peptidic substrate by cathepsin D causes an increase in the fluorescence intensity. In order to determine the efficacy of substances, the time-dependent increase in the fluorescence intensity in the presence of the substance was compared with the time-dependent increase in fluorescence in the absence of substances. The reference substance used was pepstatin A (Sigma-Aldrich). The substrate used was MCA-GKPILFFRLK(Dnp)d-R—NH2 (Enzo Life Sciences, Lörach). The enzyme employed was cathepsin D isolated from the human liver (Sigma-Aldrich) in a final concentration of 1.4 nM. The test was carried out in 100 mM sodium acetate buffer, 1.25% (v/v) of DMSO, 0.25% (w/v) of Chaps, pH 5.5. 2 μl of each substance solution with serially diluted substance concentration were added to in each case 4 μl of cathepsin D solution and incubated at room temperature for 10 min. The reaction was started by addition of 2 μl of substrate solution (final concentration 5 μM). After carrying out a starting-point fluorescence measurement (excitation wavelength 340 nm/emission wavelength 450 nm) using an Envision multilabel reader (Perkin Elmer), the reaction was incubated at room temperature for 60 min. The amount of peptide fragment cleaved off during the reaction time was subsequently measured by determination of the increase in the fluorescence intensity at 450 nm (excitation wavelength 340 nm).
The IC50 values of the compounds according to the invention can be obtained from Table 2 from Example 1.

cathepsin D isolated from the human liver, sequence (P07339 65-161): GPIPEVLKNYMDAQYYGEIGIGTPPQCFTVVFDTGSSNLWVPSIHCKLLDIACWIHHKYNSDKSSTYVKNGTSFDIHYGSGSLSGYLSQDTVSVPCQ
cathepsin D isolated from the human liver, sequence (P07339 169-412): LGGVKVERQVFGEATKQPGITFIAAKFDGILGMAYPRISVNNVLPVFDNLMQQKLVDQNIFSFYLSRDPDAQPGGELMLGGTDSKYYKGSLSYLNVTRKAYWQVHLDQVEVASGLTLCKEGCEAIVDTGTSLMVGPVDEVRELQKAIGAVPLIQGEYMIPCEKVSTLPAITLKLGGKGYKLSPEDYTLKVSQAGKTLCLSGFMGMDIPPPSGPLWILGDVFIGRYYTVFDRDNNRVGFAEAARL

Row | Compound | IC50 [nM]
1 | NC1=Nc2cc(Cl)ccc2CN1C1CCCc2ccccc21 (stereo not shown) [Compound A6, 7-chloro-3-(1,2,3,4-tetrahydronaphthalen-1-yl)-3,4-dihydroquinazolin-2-ylamine] | 1400
2 | NC1=Nc2cc(C(F)(F)F)ccc2CN1C1CCc2ccccc21 (stereo not shown) [Compound A13, 3-indan-1-yl-7-trifluoromethyl-3,4-dihydroquinazolin-2-ylamine] | 2500
3 | NC1=Nc2cc(C(F)(F)F)ccc2CN1C1c2ccccc2-c2ccccc21 [Compound A15, 3-(9H-fluoren-9-yl)-7-trifluoromethyl-3,4-dihydroquinazolin-2-ylamine] | 1200
4 | NC1=Nc2cc(C(=O)N3CCc4ccccc43)ccc2CN1C1Cc2ccccc2C1 [Compound A21, (2-amino-3-indan-2-yl-3,4-dihydroquinazolin-7-yl)-(2,3-dihydroindol-1-yl)methanone] | 220
5 | NC1=Nc2cc(C(=O)N3CCOCC3)ccc2CN1C1Cc2ccccc2C1 [Compound A25, (2-amino-3-indan-2-yl-3,4-dihydroquinazolin-7-yl)morpholin-4-ylmethanone] | 2500
6 | NC1=Nc2cc(C(=O)N3CCOCC3)ccc2CN1C1Cc2ccccc2C1 [Compound A26, (2-amino-3-indan-2-yl-3,4-dihydroquinazolin-7-yl)morpholin-4-ylmethanone] | 3000
7 | Nc1nc2cc(C(F)(F)F)ccc2c(=O)n1C1Cc2ccccc2C1 [Compound A27, 2-amino-3-indan-2-yl-7-trifluoromethyl-3H-quinazolin-4-one] | 3300
8 | NNc1nc2cc(C(F)(F)F)ccc2c(=O)n1C1Cc2ccccc2C1 [Compound A28, 2-hydrazino-3-indan-2-yl-7-trifluoromethyl-3H-quinazolin-4-one] | 24000
9 | NC1=Nc2cc(C(=O)N3CCCC3Cc3ccccc3)ccc2CN1C1Cc2ccccc2C1 (stereo not shown) [Compound A29, (2-amino-3-indan-2-yl-3,4-dihydroquinazolin-7-yl)-(2-benzylpyrrolidin-1-yl)methanone] | 310
10 | NC1=Nc2cc(C(=O)N3CCOc4ccccc43)ccc2CN1C1Cc2ccccc2C1 [Compound A30, (2-amino-3-indan-2-yl-3,4-dihydroquinazolin-7-yl)-(2,3-dihydrobenzo[1,4]oxazin-4-yl)methanone] | 240
11 | CO[C@@H]1c2ccccc2C[C@@H]1N1Cc2ccc(C(F)(F)F)cc2NC1=N [Compound A31, 3-((1R,2S)-1-methoxyindan-2-yl)-7-trifluoromethyl-3,4-dihydro-1H-quinazolin-2-ylidenamine] | 2500

Results, then the molecule that gave them:

Row | IC50 [nM] | Compound
12 | 170 | COc1ccc2c(c1)CC(N1Cc3ccc(C(F)(F)F)cc3N=C1N)C2 (racemic) [Compound A16, 3-(5-methoxyindan-2-yl)-7-trifluoromethyl-3,4-dihydroquinazolin-2-ylamine]
13 | 270 | COc1ccc2c(c1)C[C@@H](N1Cc3ccc(C(F)(F)F)cc3N=C1N)C2 (single isomer, unassigned) [Compound A18]
14 | 320 | COc1ccc2c(c1)C[C@H](N1Cc3ccc(C(F)(F)F)cc3N=C1N)C2 (single isomer, unassigned) [Compound A19]
15 | 2700 | NC1=Nc2ccccc2CN1C1Cc2ccccc2C1 [Compound A1, 3-indan-2-yl-3,4-dihydroquinazolin-2-ylamine]
16 | 2300 | NC1=Nc2ccccc2CN1C1Cc2ccccc2C1 [Compound A2, 3-indan-2-yl-3,4-dihydroquinazolin-2-ylamine]
17 | 960 | NC1=Nc2cc(Cl)ccc2CN1C1Cc2ccccc2C1 [Compound A3, 7-chloro-3-indan-2-yl-3,4-di hydroquinazolin-2-ylamine]
18 | 8400 | NC1=Nc2cccc(Cl)c2CN1C1Cc2ccccc2C1 [Compound A4, 5-chloro-3-indan-2-yl-3,4-di hydroquinazolin-2-ylamine]
19 | 2200 | NC1=Nc2cc(-c3ccccc3)ccc2CN1C1Cc2ccccc2C1 [Compound A5, 3-indan-2-yl-7-phenyl-3,4-dihydroquinazolin-2-ylamine]
20 | 140 | CCCc1ccc2c(c1)N=C(N)N(C1Cc3ccccc3C1)C2 [Compound A7, 3-indan-2-yl-7-propyl-3,4-dihydroquinazolin-2-ylamine]
21 | 1100 | COc1cc2c(cc1OC)CC(N1Cc3ccc(Cl)cc3N=C1N)C2 [Compound A8, 7-chloro-3-(5,6-dimethoxyindan-2-yl)-3,4-dihydroquinazolin-2-ylamine]
22 | 510 | COc1cc2c(cc1OC)CC(N1Cc3ccc(Cl)cc3N=C1N)C2 [Compound A9, 7-chloro-3-(5,6-dimethoxyindan-2-yl)-3,4-dihydroquinazolin-2-ylamine]
23 | 300 | NC1=Nc2cc(C(F)(F)F)ccc2CN1C1Cc2ccccc2C1 [Compound A10, 3-indan-2-yl-7-trifluoromethyl-3,4-dihydroquinazolin-2-ylamine]
24 | 780 | COc1ccc2c(c1OC)CC(N1Cc3ccc(Cl)cc3N=C1N)C2 (stereo not shown) [Compound A11, 7-chloro-3-(4,5-dimethoxyindan-2-yl)-3,4-dihydroquinazolin-2-ylamine]
25 | 810 | COc1cccc2c1CC(N1Cc3ccc(Cl)cc3N=C1N)C2 (stereo not shown) [Compound A12, 7-chloro-3-(4-methoxyindan-2-yl)-3,4-dihydroquinazolin-2-ylamine]
26 | 620 | COc1ccc2c(c1)CC(N1Cc3ccc(Cl)cc3N=C1N)C2 (stereo not shown) [Compound A14, 7-chloro-3-(5-methoxyindan-2-yl)-3,4-dihydroquinazolin-2-ylamine]
27 | 270 | CCc1ccc2c(c1)N=C(N)N(C1Cc3ccc(OC)cc3C1)C2 (stereo not shown) [Compound A17, 7-ethyl-3-(5-methoxyindan-2-yl)-3,4-dihydroquinazolin-2-ylamine]
28 | 3800 | NC1=Nc2cc(C(F)(F)F)ccc2CN1C1CCc2ccccc2C1 (stereo not shown) [Compound A20, 3-(1,2,3,4-tetrahydronaphthalen-2-yl)-7-trifluoromethyl-3,4-dihydroquinazolin-2-ylamine]
29 | 180 | COc1ccc2c(c1)CN(C(=O)c1ccc3c(c1)N=C(N)N(C1Cc4ccccc4C1)C3)C2 [Compound A22, (2-amino-3-indan-2-yl-3,4-dihydroquinazolin-7-yl)-(5-methoxy-1,3-dihydroisoindol-2-yl)methanone]
30 | 2900 | CCN(CC)C(=O)c1ccc2c(c1)N=C(N)N(C1Cc3ccccc3C1)C2 [Compound A23, N,N-diethyl-2-amino-3-indan-2-yl-3,4-dihydroquinazoline-7-carboxamide]
31 | 4200 | CCN(CC)C(=O)c1ccc2c(c1)N=C(N)N(C1Cc3ccccc3C1)C2 [Compound A24, N,N-diethyl-2-amino-3-indan-2-yl-3,4-dihydroquinazoline-7-carboxamide]

Test system: not listed separately
Experiment: Stability in plasma (h/r/m) or at pH 1.2 or pH 7.4
Type: in vitro ADME
Details: recovery after 4 h
Protocol: Stable: Recovery 75% after 4 h.

Row | Stability in plasma (h/r/m) or at pH 1.2 or pH 7.4 | Compound
32 | stab;e | COc1ccc2c(c1)CC(N1Cc3ccc(C(F)(F)F)cc3N=C1N)C2 (racemic) [Compound A16, 3-(5-methoxyindan-2-yl)-7-trifluoromethyl-3,4-dihydroquinazolin-2-ylamine]
33 | stable (Stable: Recovery 75% after 4 h.) | NC1=Nc2ccccc2CN1C1Cc2ccccc2C1 [Compound A1, 3-indan-2-yl-3,4-dihydroquinazolin-2-ylamine]
34 | stable (Stable: Recovery 75% after 4 h.) | CCCc1ccc2c(c1)N=C(N)N(C1Cc3ccccc3C1)C2 [Compound A7, 3-indan-2-yl-7-propyl-3,4-dihydroquinazolin-2-ylamine]
35 | stable (Stable: Recovery 75% after 4 h.) | NC1=Nc2cc(C(F)(F)F)ccc2CN1C1Cc2ccccc2C1 [Compound A10, 3-indan-2-yl-7-trifluoromethyl-3,4-dihydroquinazolin-2-ylamine]
36 | stable (Stable: Recovery 75% after 4 h.) | COc1ccc2c(c1)CC(N1Cc3ccc(Cl)cc3N=C1N)C2 (stereo not shown) [Compound A14, 7-chloro-3-(5-methoxyindan-2-yl)-3,4-dihydroquinazolin-2-ylamine]
37 | stable (Stable: Recovery 75% after 4 h.) | CCc1ccc2c(c1)N=C(N)N(C1Cc3ccc(OC)cc3C1)C2 (stereo not shown) [Compound A17, 7-ethyl-3-(5-methoxyindan-2-yl)-3,4-dihydroquinazolin-2-ylamine]

Test system: rat knee joint
Experiment: Anti-hyperalgesic effect in animals: carrageenan-induced knee joint inflammation, swelling and Hargreaves test
Type: in vivo
Details: intra-articular, 30 minutes before CAR, TAC 10 μg/joint
Protocol: In order to induce an inflammation reaction, a carrageenan solution (CAR, 1%, 50 μl) was injected intra-articularly on one side into a rat knee joint. The uninjected side was used for control purposes. Six animals per group were used. The threshold was determined by means of a micrometer screw (medial-lateral on the knee joint), and the thermal hyperalgesia was determined by means of a directed infrared light source by the Hargreaves method (Hargreaves et al., 1988) on the sole of the foot. […] Experimental description of thermal hyperalgesia (Hargreaves test): the experimental animal is placed in a plastic chamber on a quartz sheet. Before testing, the experimental animal is firstly given about 5-15 minutes time to familiarise itself with the environment. As soon as the experimental animal no longer moves so frequently after the familiarisation phase (end of the exploration phase), the infrared light source, whose focus is in the plane of the glass bottom, is positioned directly beneath the rear paw to be stimulated. […] Light reflected by the paw is recorded as long as the experimental animal sits still. Withdrawal of the paw interrupts this reflection, after which the infrared light source is switched off and the time from switching on to switching off is recorded. […]

Row | Compound | reduction of CAR-induced swelling
38 | C[C@]12C=CC(=O)C=C1CC[C@H]1[C@@H]3C[C@@H](O)[C@](O)(C(=O)CO)[C@@]3(C)C[C@H](O)[C@@]12F [TAC, Triamcinolone] | capable of reducing the CAR-induced swelling

Test system: cartilage explant cultures
Experiment: not given
Details: pH 5.5, explant cultures (mouse, cow or human); cited from earlier work

Row | Compound | inhibition of autodigestion of the cartilage
39 | CC(C)CC(=O)N[C@H](C(=O)N[C@H](C(=O)N[C@@H](CC(C)C)[C@@H](O)CC(=O)N[C@@H](C)C(=O)N[C@@H](CC(C)C)[C@@H](O)CC(=O)O)C(C)C)C(C)C [pepstatin] (Isovaleryl-VV[Sta]A[Sta]-OH) | inhibited virtually completely
40 | CC(C)c1nc(CN(C)C(=O)N[C@H](C(=O)N[C@@H](Cc2ccccc2)C[C@H](O)[C@H](Cc2ccccc2)NC(=O)OCc2cncs2)C(C)C)cs1 [ritonavir] | inhibited virtually completely
